One series concerns H929-1051 cells. Kind of series: Cell apoptosis assay (Caspase-3 live cell imaging). In kind it is cell-based, human. An excerpt: FIG. 1A and FIG. 1B. (FIG. 1A) Change in apoptosis induction, as measured by area under the curve of Caspase 3 fold induction (aka apoptosis index) over time in lenalidomide resistant H929-1051 cells. Abscissa: log nM (compound), ordinate: apoptosis index. The lines of best fit are a 3-parameter logistic equation calculated in GraphPad Prism. (FIG. 1B) The area under the curve of the concentration-response curves for Compound 1 and Compound A in H929-1051 cells were used to compare the compounds' ability to induce apoptosis after a 6 h exposure and then dilution resulting in about a 20-fold reduction of compound concentration.
Cell Apoptosis Assays: The ability of the compounds to induce apoptosis was assessed in selected MM cell lines at the time points and compound concentrations indicated. As a marker of apoptosis, the level of Caspase-3 activity was measured in MM cells using live cell imaging. To image suspension cells, 96-well plates were coated with fibronectin so cells would adhere and lie flat on the bottom of the plate. Cells were added to 96-well plates using a Multidrop Combi Reagent Dispenser (Thermo Scientific, Waltham, MA) the night before compound addition. […] Cleavage of the Caspase-3 enzyme substrate and cellular confluence in each well was detected via imaging at 10× on the IncuCyte ZOOM System every 4-6 h for 5 days. […]
Compound 1 Induced Apoptosis in Multiple Myeloma Cell Lines. […] To determine the ability of compounds to induce apoptosis and to characterize kinetically the onset of this process, Caspase-3 induction was measured over time in lenalidomide-resistant, H929-1051 cells (FIG. 1A and FIG. 1B). H929-1051 cells were incubated with the compounds at concentrations of 1 nM, 10 nM, 100 nM and 1000 nM and apoptosis was assessed over time. […] Next, the area under the curve (AUC) was calculated for each concentration and used to generate the concentration-response curves for each compound. This provided quantitative evidence of the ability of Compound 1 to induce apoptosis in H929-1051.

In a further series the target is T1, CYP1A2 (Homo sapiens, UniProt P05177).
T1 construct: from tissue; host or cells: pooled human liver microsomes
Kind of series: CYP inhibition in pooled human liver microsomes. In kind it is in vitro ADME. The settings on record: up to 30 μM. As to the method:
(§1) Methods. […] In addition, the compounds were evaluated for their potential to act as a time-dependent inhibitors at the same concentrations mentioned above. […] In addition to appropriate vehicle controls, known direct inhibitors and time-dependent inhibitors of CYP isoforms were included as positive controls. Following the incubation, concentrations of probe substrate metabolites were quantified using established LC/MS/MS methods. The extent of inhibition was expressed as the percentage of control activity.
(In general: Liver microsomes are a subcellular fraction often used to study metabolism.)

A further series has as its target T2, CYP2A6 (Homo sapiens, UniProt P11509).
T2 construct: from tissue; host or cells: pooled human liver microsomes
Kind of series: CYP inhibition in pooled human liver microsomes. Conditions: up to 30 μM. In kind it is in vitro ADME. As to the method: as §1

The target in another series is T3, CYP2C8 (Homo sapiens, UniProt P10632).
T3 construct: from tissue; host or cells: pooled human liver microsomes
As to the kind of experiment: CYP inhibition in pooled human liver microsomes. In kind it is in vitro ADME. Conditions: up to 30 μM. Here is the method:
as §1

The next series concerns the target T4, CYP2D6 (Homo sapiens, UniProt P10635).
T4 construct: from tissue; host or cells: pooled human liver microsomes
Kind of series: CYP inhibition in pooled human liver microsomes. Format: in vitro ADME. The settings on record: up to 30 μM. As to the method: as §1

Another series concerns the target T5, CYP2E1 (Homo sapiens, UniProt P05181).
T5 construct: from tissue; host or cells: pooled human liver microsomes
Kind of series: CYP inhibition in pooled human liver microsomes. Format: in vitro ADME. Conditions: up to 30 μM. Here is the method: as §1

In series [1] the test system is lenalidomide-resistant NCI-H929 (H929-1051) multiple myeloma/plasmacytoma tumors. Kind of series: H929-1051 xenograft, Compound 2 alone and with dexamethasone. Format: in vivo, mouse.
Series [2] concerns lenalidomide-resistant multiple myeloma cells (H929-1051). As to the kind of experiment: Apoptosis induction with dexamethasone combinations (Caspase-Glo 3/7, 72 h). Format: cell-based, human. As to the method: Methods: Dexamethasone was assessed for its ability to induce apoptosis as a single agent or in combination with Compound 2, pomalidomide, or lenalidomide. Induction of apoptosis was measured using Caspase-Glo in lenalidomide-resistant multiple myeloma cells (H929-1051). Dexamethasone was dispensed at 20 concentrations, using an acoustic dispenser. The test articles were added as single concentrations onto the dexamethasone wells with a Hewlett-Packard D300 Digital Dispenser. The final concentrations of compounds for the assay were: dexamethasone (0.8 μM to 0.00002 μM), lenalidomide (1 μM), pomalidomide (0.1 μM), and Compound 2 (0.001, 0.01, or 0.1 μM). Cells were dispensed into the assay plates with a Multidrop dispenser and duplicate plates were made for the assay. The apoptosis read was taken at 72 h post-compound treatment using a Caspase-Glo 3/7 and CellTiter-Glo Assays. The Caspase-Glo 3/7 luminescence was normalized to the CellTiter-Glo luminescence to account for differences in cell number. The fold change of the treated sample was calculated as follows: normalized caspase of treated sample/average of normalized DMSO control.

A further series has as its system THLE-2. Kind of series: Anti-proliferative counter-screen (CellTiter-Glo, 72 h). In kind it is cell-based. Conditions: Homo sapiens. (The purpose of a counterscreen is to sort out artefacts and off-target activity.)
Setting [3] is: 30 minute preincubation with or without NADPH.

“Also recorded” adds a separate entry of the source. Where only a bound is given, the exact number is not on record here.

T1 sequence (P05177 whole entry): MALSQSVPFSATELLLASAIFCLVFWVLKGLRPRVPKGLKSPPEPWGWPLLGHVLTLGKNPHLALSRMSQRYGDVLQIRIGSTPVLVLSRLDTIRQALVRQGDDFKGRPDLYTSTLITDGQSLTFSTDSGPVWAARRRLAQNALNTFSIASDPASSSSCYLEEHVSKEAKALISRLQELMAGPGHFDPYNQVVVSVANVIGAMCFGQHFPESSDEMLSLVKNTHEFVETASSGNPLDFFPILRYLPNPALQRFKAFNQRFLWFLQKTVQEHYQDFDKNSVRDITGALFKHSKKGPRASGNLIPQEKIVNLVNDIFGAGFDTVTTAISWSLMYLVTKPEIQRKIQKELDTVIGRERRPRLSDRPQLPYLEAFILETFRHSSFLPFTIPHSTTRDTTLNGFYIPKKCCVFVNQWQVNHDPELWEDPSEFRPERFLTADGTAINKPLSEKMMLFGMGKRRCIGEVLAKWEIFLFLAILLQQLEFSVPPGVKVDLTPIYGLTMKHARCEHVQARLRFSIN
T5 sequence (P05181 whole entry): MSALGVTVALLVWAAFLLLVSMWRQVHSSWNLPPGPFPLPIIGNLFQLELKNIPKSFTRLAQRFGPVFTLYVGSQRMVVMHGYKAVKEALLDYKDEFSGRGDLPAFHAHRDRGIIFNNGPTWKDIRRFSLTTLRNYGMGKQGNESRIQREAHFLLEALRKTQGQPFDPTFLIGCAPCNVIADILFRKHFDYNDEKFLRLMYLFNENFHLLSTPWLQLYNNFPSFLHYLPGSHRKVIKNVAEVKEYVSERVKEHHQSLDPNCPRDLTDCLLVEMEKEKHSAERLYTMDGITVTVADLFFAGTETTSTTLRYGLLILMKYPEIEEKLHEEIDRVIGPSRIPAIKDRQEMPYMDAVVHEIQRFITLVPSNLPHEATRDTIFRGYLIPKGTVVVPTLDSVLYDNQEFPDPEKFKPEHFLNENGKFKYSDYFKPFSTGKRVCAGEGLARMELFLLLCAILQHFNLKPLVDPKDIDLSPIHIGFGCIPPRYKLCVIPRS
T3 sequence (P10632 whole entry): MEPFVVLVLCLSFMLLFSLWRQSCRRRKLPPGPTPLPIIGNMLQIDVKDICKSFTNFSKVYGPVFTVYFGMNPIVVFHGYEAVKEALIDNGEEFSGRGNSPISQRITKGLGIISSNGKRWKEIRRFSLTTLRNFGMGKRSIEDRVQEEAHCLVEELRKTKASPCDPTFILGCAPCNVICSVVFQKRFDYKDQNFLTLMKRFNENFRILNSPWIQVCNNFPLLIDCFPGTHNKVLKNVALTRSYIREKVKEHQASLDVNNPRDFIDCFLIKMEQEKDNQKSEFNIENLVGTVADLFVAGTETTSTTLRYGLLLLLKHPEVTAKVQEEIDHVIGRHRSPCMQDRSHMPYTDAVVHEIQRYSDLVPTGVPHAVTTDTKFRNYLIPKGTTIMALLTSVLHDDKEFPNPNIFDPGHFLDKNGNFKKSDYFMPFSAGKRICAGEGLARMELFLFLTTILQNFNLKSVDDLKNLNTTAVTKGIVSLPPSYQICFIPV
T2 sequence (P11509 whole entry): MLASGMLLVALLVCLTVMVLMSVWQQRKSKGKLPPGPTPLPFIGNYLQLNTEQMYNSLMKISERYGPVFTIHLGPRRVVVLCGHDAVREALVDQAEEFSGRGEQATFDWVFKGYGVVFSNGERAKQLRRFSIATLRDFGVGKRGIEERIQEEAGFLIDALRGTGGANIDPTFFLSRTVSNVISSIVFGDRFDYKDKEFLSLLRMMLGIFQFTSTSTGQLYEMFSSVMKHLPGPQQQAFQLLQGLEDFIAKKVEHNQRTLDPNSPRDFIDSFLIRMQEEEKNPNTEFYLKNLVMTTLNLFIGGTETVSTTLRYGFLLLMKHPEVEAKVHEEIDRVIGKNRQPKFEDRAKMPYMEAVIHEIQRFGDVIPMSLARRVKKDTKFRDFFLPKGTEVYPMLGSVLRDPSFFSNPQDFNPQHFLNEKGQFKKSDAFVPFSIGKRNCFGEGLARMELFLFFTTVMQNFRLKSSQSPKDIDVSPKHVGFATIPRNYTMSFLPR
T4 sequence (P10635 whole entry): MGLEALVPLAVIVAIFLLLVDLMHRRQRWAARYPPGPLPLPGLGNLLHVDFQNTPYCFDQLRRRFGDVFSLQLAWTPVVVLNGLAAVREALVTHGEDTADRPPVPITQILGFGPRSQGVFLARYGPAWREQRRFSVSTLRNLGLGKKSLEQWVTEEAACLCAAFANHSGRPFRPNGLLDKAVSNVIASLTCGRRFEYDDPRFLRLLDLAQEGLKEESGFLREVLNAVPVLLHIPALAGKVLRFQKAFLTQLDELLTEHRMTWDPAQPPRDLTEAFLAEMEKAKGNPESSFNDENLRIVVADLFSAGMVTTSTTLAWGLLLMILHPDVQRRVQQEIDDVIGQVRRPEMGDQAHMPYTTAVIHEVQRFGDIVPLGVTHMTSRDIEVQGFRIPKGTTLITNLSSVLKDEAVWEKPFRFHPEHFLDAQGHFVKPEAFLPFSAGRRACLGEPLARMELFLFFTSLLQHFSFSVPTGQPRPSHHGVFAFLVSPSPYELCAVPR

Consider `N#Cc1ccc(N2CCN(Cc3ccc(COc4cccc5c4CN(C4CCC(=O)NC4=O)C5=O)cc3)CC2)c(F)c1` (racemic) [Compound 1, 4-(4-(4-(((2-(2,6-dioxopiperidin-3-yl)-1-oxoisoindolin-4-yl)oxy)methyl)benzyl)piperazin-1-yl)-3-fluorobenzonitrile], for which, in the series on H929-1051 cells (1-1000 nM), the “time of near maximal apoptosis induction” value is recorded as roughly 72 h. For the same molecule, in the series with H929-1051 cells (1-1000 nM, all concentrations), the “time at which apoptosis induction begins” value is given as “around 48 h”. Also, the “apoptotic induction (total AUC) compared to Compound A” value in the series on H929-1051 cells (6 h exposure then about 20-fold dilution, relative to Compound A) amounted to 126%.
On to `O=C1CC[C@H](N2Cc3c(OCc4ccc(CN5CCN(c6ccc(F)cc6F)CC5)cc4)cccc3C2=O)C(=O)N1` [Compound B], for which the “time-dependent inhibition of CYP1A2” value at CYP1A2 (setting [3]) is listed as “little to no time-dependent inhibition; also recorded: not a time-dependent inhibitor”. The “direct inhibition of CYP1A2” value on CYP1A2 (human liver microsomes) was “up to 30%”. Besides, the “time-dependent inhibition of CYP2A6” value on CYP2A6 (setting [3]) is “little to no time-dependent inhibition; also recorded: not a time-dependent inhibitor”. Besides, the “direct inhibition of CYP2A6” value at CYP2A6 (human liver microsomes) is “up to 30%”. Further, the “time-dependent inhibition of CYP2C8” value at CYP2C8 (setting [3]) is given as “little to no time-dependent inhibition; also recorded: not a time-dependent inhibitor”. The “direct inhibition of CYP2C8” value at CYP2C8 (human liver microsomes) is “up to 30%”. On CYP2D6 (setting [3]), the “time-dependent inhibition of CYP2D6” value is “little to no time-dependent inhibition; also recorded: not a time-dependent inhibitor”. Further, the “direct inhibition of CYP2D6” value on CYP2D6 (human liver microsomes) is recorded as “up to 30%”. Further, the “time-dependent inhibition of CYP2E1” value at CYP2E1 (setting [3]) is “little to no time-dependent inhibition; also recorded: not a time-dependent inhibitor”. The “direct inhibition of CYP2E1” value at CYP2E1 (human liver microsomes) was “up to 30%”.
Take `N#Cc1ccc(N2CCN(Cc3ccc(COc4cccc5c4CN([C@H]4CCC(=O)NC4=O)C5=O)cc3)CC2)c(F)c1` [Compound 2, (S)-4-(4-(4-(((2-(2,6-dioxopiperidin-3-yl)-1-oxoisoindolin-4-yl)oxy)methyl)benzyl)piperazin-1-yl)-3-fluorobenzonitrile]: in series [1] (Compound 2 0.1 mg/kg and dexamethasone 0.5 mg/kg), the “combination antitumor activity (fractional product method)” value was “synergistic”. Also, in series [1] (Compound 2 0.1 mg/kg in combination with dexamethasone 0.5 mg/kg), the “tumor volume reduction (TVR)” value is 84%. Also, in series [1] (single agent Compound 2 0.1 mg/kg oral once daily), the “tumor growth inhibition / tumor volume reduction (TVR)” value is 34%. For the same molecule, the “combination effect with dexamethasone on cell viability and apoptosis” value in series [2] (Compound 2 0.001, 0.01, 0.1 μM) is listed as “synergized with dexamethasone”. In addition, the “shift of the onset of dexamethasone activity in the presence of Compound 2” value in series [2] (caspase-3 induction) came to 1 log. Besides, in the series with THLE-2, the IC50 is greater than 10 µM.

One may read the IC50 as the concentration that gives 50% inhibition.

For the origin of these results see patent publication US12029738B2, “Antiproliferative compounds and methods of use thereof” (Celgene Corporation, priority 2017, dated 2024).
